Values joined by “and” are separate entries in the source; they are usually repeats but may differ in a detail not shown here. Identical values can stand only once.
What was measured:
[1] = 100 kPa, Liquid; for viscosity: Capillary tube (Ostwald / Ubbelohde) method; for mass density: Vibrating tube method
[2] = refractive index (Na D-line) (dimensionless); details: 101.33 kPa, Liquid, Standard Abbe refractometry
[3] = refractive index (Na D-line) (dimensionless); xn = mol fraction of the nth substance listed; details: Liquid, Standard Abbe refractometry, x2 = 0
[4] = xn = mol fraction of the nth substance listed; details: 100 kPa, Liquid, x2 = 0; for viscosity: Capillary tube (Ostwald / Ubbelohde) method; for mass density: Vibrating tube method

C1CC[C@H]2CCCC[C@H]2C1 [cis-decahydronaphthalene]
Details | mass density, [1] [kg/m3] | refractive index, [2] | viscosity, [1]
293.15 K | 896.85 | – | 3.355 mPa·s
298.15 K | 893.06 | 1.4776 | 3.011 mPa·s
303.15 K | 889.26 | – | 2.718 mPa·s
308.15 K | 885.46 | 1.4736 | 2.47 mPa·s
313.15 K | 881.65 | – | 2.252 mPa·s
318.15 K | 877.85 | 1.4696 | 2.079 mPa·s and 2.063 mPa·s
323.15 K | 874.05 | – | 1.912 mPa·s and 1.898 mPa·s

CCCCCCCCCC [decane]
Details | mass density, [1] [kg/m3] | refractive index, [2] | viscosity, [1] [mPa·s]
293.15 K | 731.14 | – | 0.916
298.15 K | 727.43 | 1.4098 | 0.852
303.15 K | 723.64 | – | 0.799
308.15 K | 719.84 | 1.4052 | 0.751
313.15 K | 716.03 | – | 0.709
318.15 K | 712.2 | 1.4 | 0.667
323.15 K | 708.36 | – | 0.632

CCCCCCCCCC [decane] + C1CC[C@H]2CCCC[C@@H]2C1
[3], 101 kPa
Details | refractive index
298.15 K | 1.4098
308.15 K | 1.4052
318.15 K | 1.4

[4]
Details | mass density [kg/m3] | viscosity [mPa·s]
293.15 K | 731.14 | 0.916
298.15 K | 727.43 | 0.852
303.15 K | 723.64 | 0.799
308.15 K | 719.84 | 0.751
313.15 K | 716.03 | 0.709
318.15 K | 712.2 | 0.667
323.15 K | 708.36 | 0.632

CCCCCCCCCC [decane] + C1CC[C@H]2CCCC[C@H]2C1
[3], 100 kPa
Details | refractive index
298.15 K | 1.4098
308.15 K | 1.4052
318.15 K | 1.4

[4]
Details | mass density [kg/m3] | viscosity [mPa·s]
293.15 K | 731.14 | 0.916
298.15 K | 727.43 | 0.852
303.15 K | 723.64 | 0.799
308.15 K | 719.84 | 0.751
313.15 K | 716.03 | 0.709
318.15 K | 712.2 | 0.667
323.15 K | 708.36 | 0.632

CCCCCCCCC [nonane]
Details | mass density, [1] [kg/m3] | refractive index, [2] | viscosity, [1] [mPa·s]
293.15 K | 717.94 | – | 0.724
298.15 K | 714.11 | 1.4026 | 0.681
303.15 K | 710.2 | – | 0.64
308.15 K | 706.29 | 1.3983 | 0.604
313.15 K | 702.35 | – | 0.571
318.15 K | 698.4 | 1.3937 | 0.547
323.15 K | 694.43 | – | 0.521

CCCCCCCCC [nonane] + C1CC[C@H]2CCCC[C@@H]2C1
[3], 100 kPa
Details | refractive index
298.15 K | 1.4026
308.15 K | 1.3983
318.15 K | 1.3937

[4]
Details | mass density [kg/m3] | viscosity [mPa·s]
293.15 K | 717.94 | 0.724
298.15 K | 714.11 | 0.681
303.15 K | 710.2 | 0.64
308.15 K | 706.29 | 0.604
313.15 K | 702.35 | 0.571
318.15 K | 698.4 | 0.547
323.15 K | 694.43 | 0.521

CCCCCCCCC [nonane] + C1CC[C@H]2CCCC[C@H]2C1
[3], 100 kPa
Details | refractive index
298.15 K | 1.4026
308.15 K | 1.3983
318.15 K | 1.3937

[4]
Details | mass density [kg/m3] | viscosity [mPa·s]
293.15 K | 717.94 | 0.724
298.15 K | 714.11 | 0.681
303.15 K | 710.2 | 0.64
308.15 K | 706.29 | 0.604
313.15 K | 702.35 | 0.571
318.15 K | 698.4 | 0.547
323.15 K | 694.43 | 0.521

C1CC[C@H]2CCCC[C@@H]2C1 [trans-decahydronaphthalene]
Details | mass density, [1] [kg/m3] | refractive index, [2] | viscosity, [1] [mPa·s]
293.15 K | 869.78 | – | 2.112
298.15 K | 866.07 | 1.4662 | 1.925
303.15 K | 862.34 | – | 1.769
308.15 K | 858.61 | 1.4618 | 1.628
313.15 K | 854.88 | – | 1.505
318.15 K | 851.14 | 1.4581 | 1.394
323.15 K | 847.4 | – | 1.295

CCCCCCCCCCC [undecane]
Details | mass density, [1] [kg/m3] | refractive index, [2] | viscosity, [1] [mPa·s]
293.15 K | 740.28 | – | 1.17
298.15 K | 736.63 | 1.4138 | 1.086
303.15 K | 732.93 | – | 1.004
308.15 K | 729.22 | 1.4095 | 0.931
313.15 K | 725.51 | – | 0.862
318.15 K | 721.78 | 1.4058 | 0.801
323.15 K | 718.04 | – | 0.749

CCCCCCCCCCC [undecane] + C1CC[C@H]2CCCC[C@@H]2C1
[3], 100 kPa
Details | refractive index
298.15 K | 1.4138
308.15 K | 1.4095
318.15 K | 1.4058

[4]
Details | mass density [kg/m3] | viscosity [mPa·s]
293.15 K | 740.28 | 1.17
298.15 K | 736.63 | 1.086
303.15 K | 732.93 | 1.004
308.15 K | 729.22 | 0.931
313.15 K | 725.51 | 0.862
318.15 K | 721.78 | 0.801
323.15 K | 718.04 | 0.749

CCCCCCCCCCC [undecane] + C1CC[C@H]2CCCC[C@H]2C1
[3], 100 kPa
Details | refractive index
298.15 K | 1.4138
308.15 K | 1.4095
318.15 K | 1.4058

[4]
Details | mass density [kg/m3] | viscosity [mPa·s]
293.15 K | 740.28 | 1.17
298.15 K | 736.63 | 1.086
303.15 K | 732.93 | 1.004
308.15 K | 729.22 | 0.931
313.15 K | 725.51 | 0.862
318.15 K | 721.78 | 0.801
323.15 K | 718.04 | 0.749

— the NIST ThermoML archive (doi:10.1021/je400250u)
